Laboratory results taken from patent US11242331B2 (University of Florida Research Foundation, Incorporated, priority 2016, dated 2022).

Tests used:
[1] = tested on: endogenous NQO1; assay: RT-qPCR validation of ARE activation in LNCaP cells; type: cell-based, human; conditions: for levels of endogenous NQO1 (ARE activation): 24 h, RT-qPCR, relative to 0.5% DMSO; for potency compared with positive control sulforaphane: NQO1 RT-qPCR, sulforaphane 10 μM
Method: (§1) As a control, LNCaP viability was monitored in parallel (FIG. 11E).
(§2) The antioxidant response element (ARE) expression induction assay with LNCaP cells was performed as previously described.^6 The ARE expression inhibition assay was performed with MDA-MB-231-ARE-Luc cells that stably express the ARE reporter construct.7 MDA-MB-231-ARE-Luc cells were seeded in 96 well plates at 1.5×10^4 cells/well in DMEM medium (GIBCO) containing 10% FCS and 1% antibiotic-antimycotic (GIBCO), and allowed to attach overnight. Test compounds were screened in triplicate at three concentrations (100, 10 and 1 μM) and ARE expression was quantified on the EnVision plate reader (Perkin-Elmer) using the BriteLite plus luciferase reporter assay system (Perkin-Elmer) after 24 h exposure in a humidified incubator at 37° C. with 5% CO2. In both cell line assays the luciferase expression for compound-treated wells was expressed relative the 0.5% DMSO carrier solvent control. A parallel viability assay was performed with the Cell Titer 96 Non-radioactive Cell Proliferation Assay (Promega) and the data expressed in the same manner as above. Compounds that inhibited ARE expression 20% more than viability, or induced ARE expression more than three-fold were re-tested in a seven-point, two-fold serial dilution dose-response assay (100-1.56 μM).
In order to validate the ARE modulatory effects of compounds from the primary screen, the expression of the target Nrf2 target gene, Ngo1, was quantified by RT-qPCR. LNCaP and MDA-MB-231-ARE-Luc cells were seeded in 6 well plates at 5×10^5 and 7×10^5 cells per well, in EMEM and DMEM media containing 10% FCS and 1% antibiotic-antimycotic (GIBCO) respectively. Cells were allowed to attach overnight before the addition of test compounds. After 24 h exposure in a humidified incubator at 37° C. with 5% CO2, RNA was isolated using the RNeasy kit (Qiagen) and quantified using a NanoDrop spectrophotometer (Thermo Fisher Scientific). cDNA was synthesized from 2 μg of RNA using Oligo(dT)12-18 (Life Technologies) primer and SuperScript II (Thermo Fisher Scientific) on the Mastercycler Gradient PCR machine (Eppendorf) for 1 h at 42° C. following a 10 min denaturation at 65° C. Gene expression was quantified on the 7300 Real Time PCR machine (Applied Biosystems) using TaqMan Gene Expression Master Mix (Thermo Fisher Scientific) and probes for the target gene Nqo1 (Hs02512143_s1, Thermo Fisher Scientific) and reference gene ActB (Hs99999903_m1, Thermo Fisher Scientific). Real time PCR was performed with the following thermal cycle: 1. 50° C. for 2 min; 2. 95° C. for 10 min; 3. 40 cycles of 95° C. for 15 sec followed by 60° C. for 1 min.

[2] = tested on: parental HCT116 and HCT116 HIF-1α−/−HIF-2α−/− cells; assay: Cell viability assay in isogenic HCT116 lines (HIF-dependent anticancer activity); type: cell-based, human; conditions: parental HCT116 vs HCT116 HIF-1α/HIF-2α double knockout, 48 h, MTT
[3] = tested on: NO production in RAW264.7 cells; assay: Nitric oxide assay (Griess reagent); type: cell-based, mouse; conditions: RAW264.7 macrophage cells, LPS, 24 h
Method: (§3) Each biological screen was performed in three independent experiments at concentrations of 1, 10, 100 or 200 μM. All hit compounds identified in primary screens were then evaluated in follow-up assays to validate/confirm the initial screening results.
(§4) Mouse macrophage, RAW264.7 cells were cultured in Dulbecco's Modified Eagle Medium (DMEM) supplemented with 10% fetal bovine serum and maintained in 5% C02 at 37° C. Cells were seeded in 96-well plates (20,000 cells/well) and after 24 h pretreated for 1 hour with different concentrations of test compounds in triplicate or solvent control (0.5% DMSO) before adding LPS (1 μg/mL in PBS). Nitric oxide (NO) production in culture supernatant was assessed after 24 h following treatment by measuring nitrite concentration, an oxidative product of NO. Nitrite production was measured by mixing […] of culture supernatant with […] of Griess reagent (Promega), absorbance measured at 540 nm and NO % calculated against a calibration curve generated for fresh sodium nitrite standard. Cells were used for measuring viability (24 h) as above.

[4] = tested on: RAW264.7 cells; assay: RAW264.7 cell viability (MTT); type: cell-based, mouse; conditions: 24 h
Method: Human colorectal cancer cell lines HCT116, HCT116^HIF-1α−/−HIF-2α−/−, and HCT 116^WT KRAS were cultured in Dulbecco's Modified Eagle Medium (DMEM) supplemented with 10% fetal bovine serum and maintained in 5% CO2 at 37° C. The cells were seeded in a 96-well plate (10,000 cells/well) and treated with different concentrations of test compounds or solvent control (0.5% DMSO) after 24 h. Cell viability was measured 48 h following treatment with MTT dye using the manufacturer's protocol (Promega).
as §4

[5] = tested on: Nrf2-ARE pathway (ARE-luciferase reporter); assay: ARE luciferase assay in LNCaP cells (activation); type: cell-based, human; conditions: 24 h, screened at 100, 10 and 1 μM
Method: as §3, §1
as §2, with “Compounds that inhibited ARE expression 20% more than viability, or induced ARE expression more than three-fold were re-tested in a seven-point, two-fold serial dilution dose-response assay (100-1.56 μM).” left out

[6] = tested on: Nrf2-ARE pathway (ARE-luciferase reporter); assay: ARE luciferase assay in MDA-MB-231-ARE-Luc cells (inhibition); type: cell-based, human; conditions: 24 h, screened at 100, 10 and 1 μM
Method: as §3
The library compounds were then assessed for the potential to modulate the activity of another key transcription factor, NF-E2-related factor 2 (Nrf2), which acts on the antioxidant response element (ARE) in the promoter region upstream of antioxidant and phase II detoxification enzymes. Activators of the Nrf2-ARE pathway have potential as cancer preventive agents because of their ability to increase antioxidant status of the cell and protect from oxidative damage that could lead to cancer. Inhibitors in turn may increase the susceptibility of cancer cells to chemotherapeutic agents and overcome drug resistance since Nrf2 is commonly activated in cancer.^44 To screen for Nrf2 inhibitors, MDA-MB-231 breast cancer cells (a model for invasive, triple negative breast cancer) stably transfected with the ARE-luciferase reporter were used, where the promoter region is derived from the human NQO1 gene.^45 As a control, cell viability was monitored to ensure the identification of false positives in the reporter gene assay that are a result of concomitant reduced cell viability. […]

[7] = tested on: endogenous Nrf2 target gene, NQO1; assay: RT-qPCR validation of ARE inhibition in MDA-MB-231-ARE-Luc cells; type: cell-based, human; conditions: 24 h, relative to 0.5% DMSO
Method: The library compounds were then assessed for the potential to modulate the activity of another key transcription factor, NF-E2-related factor 2 (Nrf2), which acts on the antioxidant response element (ARE) in the promoter region upstream of antioxidant and phase II detoxification enzymes. Activators of the Nrf2-ARE pathway have potential as cancer preventive agents because of their ability to increase antioxidant status of the cell and protect from oxidative damage that could lead to cancer. Inhibitors in turn may increase the susceptibility of cancer cells to chemotherapeutic agents and overcome drug resistance since Nrf2 is commonly activated in cancer.^44 To screen for Nrf2 inhibitors, MDA-MB-231 breast cancer cells (a model for invasive, triple negative breast cancer) stably transfected with the ARE-luciferase reporter were used, where the promoter region is derived from the human NQO1 gene.^45 As a control, cell viability was monitored to ensure the identification of false positives in the reporter gene assay that are a result of concomitant reduced cell viability.
The antioxidant response element (ARE) expression induction assay with LNCaP cells was performed as previously described.^6 The ARE expression inhibition assay was performed with MDA-MB-231-ARE-Luc cells that stably express the ARE reporter construct.7 MDA-MB-231-ARE-Luc cells were seeded in 96 well plates at 1.5×10^4 cells/well in DMEM medium (GIBCO) containing 10% FCS and 1% antibiotic-antimycotic (GIBCO), and allowed to attach overnight. Test compounds were screened in triplicate at three concentrations (100, 10 and 1 μM) and ARE expression was quantified on the EnVision plate reader (Perkin-Elmer) using the BriteLite plus luciferase reporter assay system (Perkin-Elmer) after 24 h exposure in a humidified incubator at 37° C. with 5% CO2. […]
In order to validate the ARE modulatory effects of compounds from the primary screen, the expression of the target Nrf2 target gene, Ngo1, was quantified by RT-qPCR. […]

[8] = tested on: Staphylococcus aureus; assay: Bacterial growth inhibition assay, S. aureus; type: cell-based; conditions: 16-18 h, OD600
Method: as §3
Bacterial growth inhibition was determined by screening all yohimbine-derived compounds at 200 μM in 96-well plates. Briefly, 2 μL of a 20 mM DMSO stock solution (test compound) was added to 98 μL of media (tryptic soy broth with 0.5% glucose for S. aureus; LB for A. baumannii) before each well was treated with an additional 100 μL of inoculated media (giving ˜10^5 colony forming units per milliliter) prepared from a fresh log-phase culture (OD600 of 0.8 to 1.0). The inoculated 96-well plates were then covered and placed in a humidifying chamber and allowed to incubate at 37° C. for 16-18 hours. Bacterial growth was then determined using a spectrophotometer plate reader (OD600) to quantify turbidity (growth) in each treated and untreated well of the 96-well plates. Turbidity for treated wells were compared to a 1% v/v DMSO vehicle and recorded in the screening heat map. All compounds were tested in three independent experiments.

`CC(=O)N1CCc2c([nH]c3ccccc23)[C@H](OCc2ccccc2)C[C@H]2[C@@H](CC[C@H](O)[C@@H]2CO)C1` [Y6u] was tested, and the “levels of endogenous NQO1 (ARE activation)” value [1] was “active at lower concentrations” and the “potency compared with positive control sulforaphane” value [1] was “only slightly less potent than the positive control”.
With `COC(=O)[C@@H]1[C@H]2C[C@@H]3N(CC[C@@]34C(=O)N(Cc3cccc(OC)c3)c3ccccc34)C[C@@H]2CC[C@@H]1OCc1cccc(OC)c1` [Y7g] the “differential (HIF-dependent) antiproliferative activity” value [2] was “most selective antiproliferative agent”, the “inhibition of nitric oxide (NO) production” value [3] was “most selective anti-inflammatory activity” and the cell viability [4] was “almost unaffected”.
With `COC(=O)[C@@H]1[C@H]2C[C@H]3c4[nH]c5ccccc5c4CCN3C[C@@H]2CC[C@@H]1O` [yohimbine 1, yohimbine] the “inhibition of nitric oxide (NO) production” value [3] was “does not possess any of these activities”, the “ARE activation (luciferase reporter)” value [5] was “does not possess any of these activities” and the “ARE inhibition (luciferase reporter)” value [6] was “does not possess any of these activities”.
With `OC[C@@H]1[C@H]2C[C@@H]3OCc4ccccc4-n4c3c(c3ccccc34)CCNC[C@@H]2CC[C@@H]1O` [Y5b] the “levels of endogenous NQO1 (ARE activation)” value [1] was “active at lower concentrations” and the “potency compared with positive control sulforaphane” value [1] was “only slightly less potent than the positive control”.
With `COC(=O)[C@@H]1[C@H]2C[C@@H]3N(CC[C@@]34C(=O)N(c3ccc(Oc5ccccc5)cc3)c3ccccc34)C[C@@H]2CC[C@@H]1O` [Y3e] the “transcription of endogenous NQO1” value [7] was “downregulated NQO1 transcription”.
For `COC(=O)[C@@H]1[C@H]2C[C@@H](c3[nH]c4ccccc4c3CCn3cc(-c4cccc(Cl)c4)nn3)N(C#N)C[C@@H]2CC[C@@H]1O` [Y1f], the inhibition at 200 µM [8] was about 20% and the “transcription of endogenous NQO1” value [7] was “downregulated NQO1 transcription”.
In the case of `COC(=O)[C@@H]1[C@H]2C[C@H](OCc3ccc(Br)cc3)c3[nH]c4ccccc4c3CCN(C#N)C[C@@H]2CC[C@@H]1O` [Y6q], the inhibition at 200 µM [8] is reported as about 20% and the “transcription of endogenous NQO1” value [7] is reported as “downregulated NQO1 transcription”.
